The subject of experiment [1] is PC3 human prostate carcinoma. Nature of the experiment: cells. The format is cell-based. As to the method:
(§1) To evaluate the effect of the compound on survival cells, the sulphorodamine B test was used. To test the effects of the compounds on cell growth, PC3 human prostate carcinoma, A498 human renal carcinoma, A2780 human ovarian carcinoma cells and NCI-H460 non-small cell lung carcinoma were used. A2780, NCI-H460 and PC3 tumor cells were grown RPMI 1640 containing 10% fetal bovine serum (GIBCO), whereas A498 tumor cells were grown in EMEM containing 10% fetal bovine serum (GIBCO).
(§2) Tumor cells were seeded in 96-well tissue culture plates (Corning) at approximately 10% confluence and were allowed to attach and recover for at least 24 h. […] The plates were incubated for 72 h at 37° C. or 2 h followed by 72 h of recovery. At the end of the treatment, the plates were washed by removal of the surnatant and addition of PBS 3 times. 200 μl PBS and 50 μl of cold 80% TCA were added. The plates were incubated on ice for at least 1 h. TCA was removed, the plates were washed 3 times for immersion in distilled-water and dried on paper and at 40° C. for 5 min.
(§3) Then 200 μl of 0.4% sulphorodamine B in 1% acetic acid were added. The plates were incubated at room temperature for other 30 min. Sulphorodamine B was removed, the plates were washed for immersion in 1% acetic acid for 3 times, then they were dried on paper and at 40° C. for 5 min.
(§4) Then 200 μl Tris 10 mM were added, the plates were kept under stirring for 20 min. The survival cell was determined as optical density by a Multiskan spectrofluorimeter at 540 nm. The amount of cells killed was calculated as the percentage decrease in sulphorodamine B binding compared with control cultures.
(§5) The IC50 values were calculated with the “ALLFIT” program.

For experiment [2], the system named is A2780 human ovarian carcinoma cells. The experiment is described as follows: cells. It counts as cell-based. On the procedure: as §1, §2, §3, §4, §5
For experiment [3], the system named is A498 human renal carcinoma. Nature of the experiment: cells. It counts as cell-based. On the procedure: as §1, §2, §3, §4, §5
Experiment [4] has as its target T1, purified αvβ3 receptor (Homo sapiens, UniProt P05106+P06756).
T1 construct: purchased Chemicon CC1020
Nature of the experiment: Binding to integrin αvβ3 receptors ([125I]echistatin competition). As to the method: (§6) An aliquot of 100 μl was added to 96-well plates and incubated overnight at +4° C. Plates were washed once with buffer (50 mM Tris, pH 7,4, 100 mM NaCl, 2 mM CaCl2, 1 mM MgCl2, 1 mM MnCl2, 1% bovine serum albumin) and then incubated for another 2 hours at room temperature. Plates were washed twice with the same buffer and incubated for 3 hours at room temperature with the radioactive ligand [^125I]echistatin (Amersham Pharmacia Biotech) 0.05 nM in the presence of competition ligands. At the end of incubation, the wells were washed and the radioactivity determined using a gamma counter (Packard). Non-specific binding of the ligand was determined in the presence of excess cold echistatin (1 μM).
(§7) The IC50 parameter was elaborated using “ALLFIT” software.

The target in experiment [5] is T2, purified αvβ5 receptor (Homo sapiens, UniProt P06756+P18084).
T2 construct: purchased Chemicon CC1020
The experiment is described as follows: Binding to integrin αvβ5 receptors ([125I]echistatin competition). As to the method: as §6, with “7.4,” for “7,4,”, “0.15” for “0.05”, “Non-specific ligand” for “Non-specific”, “binding” for “binding of the ligand”
as §7

The test system of experiment [6] is NCI-H460 non-small cell lung carcinoma. Nature of the experiment: Cytotoxicity, sulphorodamine B test, NCI-H460. The format is cell-based, human. The settings on record: 2 h of treatment (followed by 72 h of recovery), read-out: NCI-H460 IC50 ± SD. As to the method:
as §1
Tumor cells were seeded in 96-well tissue culture plates (Corning) at approximately 10% confluence and were allowed to attach and recover for at least 24 h. […] The plates were incubated for 72 h at 37° C. or 2 h followed by 72 h of recovery. At the end of the treatment, the plates were washed by removal of the surnatant and addition of PBS 3 times. 200 μl PBS and 50 μl of cold 80% TCA were added. The plates were incubated on ice for at least 1 h. […]
as §4, §5

Where two headings read alike, the source gives them in different places.

Here are results for 5 molecules from patent US7589099B2, “7-t-butoxyiminomethylcamptothecin conjugated in position 20 with integrin antagonists” (priority 2004, dated 2009).

Turning to `CC[C@@]1(OC(=O)[C@@H](NC(=O)CCC(=O)NCc2ccc(C[C@@H]3NC(=O)C(Cc4ccccc4)NC(=O)[C@H](CC(=O)O)NC(=O)CNC(=O)[C@H](CCCNC(=N)N)NC3=O)cc2)C(C)C)C(=O)OCc2c1cc1n(c2=O)Cc2c-1nc1ccccc1c2/C=N/OC(C)(C)C` (stereo partly drawn) [ST2670], the IC50 in experiment [1] (72 h) is 9600 ± 600 nM; in experiment [2] (72 h), 400 nM; in experiment [3] (72 h) it was 1600 ± 300 nM; in experiment [4] it was 47.7 ± 0.9 nM; in experiment [5] it was 74 ± 0.8 nM.
For the molecule `CN1C(=O)[C@@H](Cc2ccccc2)NC(=O)[C@H](CC(=O)O)NC(=O)CNC(=O)[C@H](CCCNC(=N)N)NC(=O)[C@@H]1Cc1ccc(CN)cc1` [ST2700], in experiment [5] (RGD peptides, [125I]echistatin 0.15 nM, read-out: αvβ5 IC50 ± SD), the IC50 was determined as 0.9 ± 0.005 nM.
Consider `CC[C@@]1(OC(=O)[C@@H](NC(=O)[C@H](CC(=O)O)NC(=O)OC(C)(C)C)C(C)C)C(=O)OCc2c1cc1n(c2=O)Cc2c-1nc1ccccc1c2/C=N/OC(C)(C)C` [ST2676, 20-O-Val-Asp-gimatecan], for which the IC50 in experiment [1] (Homo sapiens, 72 h of treatment, read-out: PC3 IC50 ± SD) is 38 ± 4 nM; in experiment [2] (Homo sapiens, A2780, 72 h of treatment, read-out: A2780 IC50 ± SD) it was under 0.97 nM; in experiment [3] (Homo sapiens, A498, 72 h of treatment, read-out: A498 IC50 ± SD), 47 ± 5 nM; in experiment [6] (Homo sapiens, NCI-H460), 170 ± 20 nM.
On to `CC[C@@]1(OC(=O)[C@@H](NC(=O)[C@@H](N)CC(=O)NCc2ccc(C[C@@H]3NC(=O)C(Cc4ccccc4)NC(=O)[C@H](CC(=O)O)NC(=O)CNC(=O)[C@H](CCCNC(=N)N)NC3=O)cc2)C(C)C)C(=O)OCc2c1cc1n(c2=O)Cc2c-1nc1ccccc1c2/C=N/OC(C)(C)C` (stereo partly drawn) [ST2671], for which the IC50 in experiment [1] (72 h) was 350 ± 80 nM; in experiment [4], 22.8 ± 1.2 nM; in experiment [5], 54.2 ± 0.5 nM. In addition, the “PC3 IC50 ± SD” value in experiment [1] (72 h of treatment) is listed as “potent cytotoxicity”.
Take 20-O-Val-gimatecan [ST2678]: in experiment [6], the IC50 amounted to 25 ± 2 nM.

Usually IC50 stands for the concentration needed to halve the response being measured.
